Read-outs that look alike come from different tables or passages of the source.
How the values were obtained:
H3N2 NA = assay type: biochemical, influenza H3N2
[1] = test system: 3NACP (Clostridium perfringens NA); assay type: binding; settings: 0.3 mU/mL 3NACP
[2] = test system: 3NACP (Clostridium perfringens NA); assay type: biochemical; settings: 3 mU/mL 3NACP; 1 μM inhibitor vs without

| SMILES | inhibition effect on enzymatic response of AuE-H3 to H3N2 NA (normalized RCT) (H3N2 NA) | adsorption response of GCE-H3 to 3NACP (Normalized RCT) with inhibitor ([1]; 0.1 μM inhibitor, vs 0 μM) | adsorption response of GCE-H3 to 3NACP (Normalized RCT) with inhibitor ([1]; 1 μM inhibitor) | impedimetric response of AuE-H3 to 3NACP (1/Normalized RCT) with inhibitor [2] |
| --- | --- | --- | --- | --- |
| CCOC(=O)C1=C[C@@H](OC(CC)CC)[C@H](NC(C)=O)[C@@H](N)C1 [Oseltamivir] | weak inhibition effect | lower adsorption response | further decrease in response | decrease in response |
| CCC(CC)[C@H](NC(C)=O)[C@@H]1[C@H](O)[C@@H](C(=O)O)C[C@H]1N=C(N)N [Peramivir] | moderate inhibition effect | – | – | – |
| CC(=O)N[C@H]1[C@H]([C@H](O)[C@H](O)CO)OC(C(=O)O)=C[C@@H]1N=C(N)N [Zanamivir] | strongest effect | – | – | – |

Reference: patent publication US20250236902A1 (priority 2022, published 2025)
